# Experimental data: ChEMBL document CHEMBL1136899, “Synthesis and therapeutic evaluation of pyridyl based novel mTOR inhibitors” (Bioorg Med Chem Lett, 2009)
# The source made the active and inactive calls. No cut-off for these calls is given here.
# Key:
# [1] = Cmax in mouse plasma at 100 mg/kg, ip; assay type: ADME, organism-based; design: dose 100 mg/kg, route intraperitoneal
# Mus musculus [2] = test: Suppression of dextran sulfate sodium-induced colitis in mouse assessed as improved rectal bleeding index at 150 mg/kg, ip administered daily for 10 days by macroscopic analysis; assay type: functional, organism-based; design: dose 150 mg/kg
# Mus musculus [3] = test: Decrease in dextran sulfate sodium-induced edema in mouse at 150 mg/kg, ip administered daily for 10 days by histological analysis; assay type: functional, organism-based; design: dose 150 mg/kg
# Mus musculus [4] = test: Suppression of dextran sulfate sodium-induced colitis in mouse assessed as decrease in disease activity index at 150 mg/kg, ip administered daily for 10 days by macroscopic analysis; assay type: functional, organism-based; design: dose 150 mg/kg
# Mus musculus [5] = test: Blockade of dextran sulfate sodium-induced mTOR activation in mouse at 150 mg/kg, ip administered daily for 10 days by Western blot analysis; assay type: functional, organism-based; design: dose 150 mg/kg
# [6] = Cmax in mouse plasma at 15 mg/kg, ip; assay type: ADME, organism-based; design: dose 15 mg/kg, route intraperitoneal
# PBMC = test: Inhibition of concanavalin A-induced IFN-gamma production in human PBMC cells; assay type: functional, cell-based
# Mus musculus [7] = test: Suppression of dextran sulfate sodium-induced colitis in mouse assessed as inhibition of leukocyte infiltration in colonic mucosa at 150 mg/kg, ip administered daily for 10 days by histological analysis; assay type: functional, organism-based; design: dose 150 mg/kg
# Plasma [8] = test: Stability in mouse plasma; assay type: ADME, cell-free
# Plasma [9] = test: Stability in rat plasma; assay type: ADME, cell-free
# Mus musculus [10] = test: Protection against dextran sulfate sodium-induced crypt damage in mouse at 150 mg/kg, ip administered daily for 10 days by histological analysis; assay type: functional, organism-based; design: dose 150 mg/kg
# Plasma [11] = test: Stability in human plasma; assay type: ADME, cell-free
# Mus musculus [12] = test: Inhibition of dextran sulfate sodium-induced weight loss in mouse at 150 mg/kg, ip administered daily for 10 days by macroscopic analysis; assay type: functional, organism-based; design: dose 150 mg/kg
# Mus musculus [13] = test: Reversal of dextran sulfate sodium-induced shortening of colon in mouse at 150 mg/kg, ip administered daily for 10 days by macroscopic analysis; assay type: functional, organism-based; design: dose 150 mg/kg
smiles,measurement,setting,value
CC(Cl)C(=O)Nc1ccc(C#N)nc1 (centres undefined),Cmax,[1],180 µM
same,Activity,Mus musculus [2],Active
same,Activity,Mus musculus [3],Active
same,Activity,Mus musculus [4],Active
same,Activity,Mus musculus [5],Active
same,Cmax,[6],30 µM
same,Activity,PBMC,Dose-dependent effect
same,inhibition,Mus musculus [7],Active
same,Stability,Plasma [8],Stable
same,Stability,Plasma [9],Stable
same,Activity,Mus musculus [10],Active
same,Stability,Plasma [11],Stable
same,inhibition,Mus musculus [12],Active
same,Activity,Mus musculus [13],Active
